For 18 compounds, melting point and inhibition results are on record in patent US9475766B2, “Substituted aromatic sulfur compounds and methods of their use” (Cephalon, Inc., priority 2011, dated 2016).

Structures can show the parent of a compound that is named as a salt.

Series [1] relates to SU86 pancreatic cancer cell line (Su.86.86). The experiment in a line: Cell survival and adhesion assay (luciferase), SU86. Type of series: cell-based. To be noted: 5 hours, SU86 cells overlayed onto human mesothelial cell monolayers, read-out: relative reduction in Luciferase activity, SU86 10 μM. The method, boiled down: (§1)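 Luciferase-expressing tumour cells (10^5) were overlaid on confluent human mesothelial cell monolayers together with compound or DMSO for 5 hours. Non-adherent cells were washed off; adherent, surviving cells were lysed, protein-normalised and quantified by firefly luciferase luminescence.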

Series [2] relates to BxPC3 pancreatic cell line. The experiment in a line: Cell survival and adhesion assay (luciferase), BxPC3. Type of series: cell-based. The settings on record: BXPC-3, 5 hours, BxPC3 cells overlayed onto human mesothelial cell monolayers, read-out: relative reduction in Luciferase activity, BxPC3 10 μM. The method, boiled down:
as §1

For series [3], the system named is HT29 colon cancer cell line. Briefly: Cell survival and adhesion assay (luciferase), HT29. Type of series: cell-based. The settings on record: HT-29, 5 hours, HT29 cells overlayed onto human mesothelial cell monolayers, read-out: relative reduction in Luciferase activity, HT29 10 μM. How it is done:
SU86 is a pancreatic cancer cell line. HT29 is a colon cancer cell line. BxPC3 is a pancreatic cell line. A2780 is an ovarian cancer cell line.
BxPc-3 and Su.86.86 pancreatic and HT-29 colon and A2780 ovarian cancer cell lines were purchased from ATCC and cultured in DMEM supplemented with 10% fetal bovine serum, glutamine, penicillin, and streptomycin. All cells were cultured at 37° C. in a humidified incubator in a 5% CO2 atmosphere. The cancer cell lines were transduced with a retrovirus containing pLuc-puro, a constitutive luciferase reporter and selected in […] media. Transient transfection of a full-length human c-FLIP construct in the vector pcDNA3 was performed as previously described. Scaife et al. Cancer Research 2002, 62: 6870-78.
Pancreatic cancer cell cultures (BxPc-3 and Su.86.86) and colon cancer (HT-29) and ovarian cancer (A2780) cells that were stably transfected with a firefly luciferase construct were transiently suspended with trypsin-PBS. 10^5 cells were overlayed onto confluent monolayers of human mesothelial cells in 96-well plates while simultaneously adding various concentrations of compounds of the invention or DMSO for 5 hours. The non-adherent cells were carefully washed away from the wells twice with 100 μl/well of blocking buffer (1% BSA in PBS) and twice again with ice-cold PBS. Adherent and surviving cells were detected by luciferase activity in a luminometer as follows. The cells were lysed in 0.1% TritonX-100, 25 mM Gly-Gly (7.8), MgSO4, 4 mM EGTA, 1 mM DTT. The total protein concentration was normalized with lysis buffer. 50 μl of cell lysate was added per well of a 96-well microtiter plate. 50 μl of luciferin substrate (Promega) was added per well and then the light output determined in a luminometer.

In series [4] the test system is A2780 ovarian cancer cell line. Briefly: Cell survival and adhesion assay (luciferase), A2780. Type of series: cell-based. The settings on record: 5 hours, A2780 cells overlayed onto human mesothelial cell monolayers, read-out: relative reduction in Luciferase activity, A2780 10 μM. The procedure, abridged:
as §1

As a reminder, the melting point is the temperature of the solid-liquid transition. Compound `CC(C)(C(=O)NCc1ccc(-n2cccn2)cc1)c1ccc(S(=O)(=O)/C=C/C#N)cc1` (as salt: trifluoroacetic acid salt) [Example 21, 2-[4-((E)-2-Cyano-ethenesulfonyl)-phenyl]-N-(4-pyrazol-1-yl-benzyl)-isobutyramide] yielded a melting point of 47 to 53 °C.

`CC(C)(C(=O)NC1CCCCC1)c1ccc(S(=O)(=O)/C=C/C#N)cc1` [Example 12, 2-[4-((E)-2-Cyano-ethenesulfonyl)-phenyl]-N-cyclohexyl-isobutyramide] displayed a melting point of 191 to 193 °C. The inhibition at 10 µM in series [1] lay within 50 to 85%. Further, the inhibition at 10 µM in series [2] was 50 to 85%. Moreover, in series [3], the inhibition at 10 µM is less than 10%. Also, the inhibition at 10 µM in series [4] was 50 to 85%.

With `CC(C)(C(=O)N1CCc2ccccc2C1)c1ccc(S(=O)(=O)/C=C/C#N)cc1` [Example 20, (E)-3-{4-[2-(3,4-Dihydro-1H-isoquinolin-2-yl)-1,1-dimethyl-2-oxo-ethyl]-benzenesulfonyl}-acrylonitrile], the melting point is 54 to 60 °C. For the same compound, the inhibition at 10 µM in series [1] was in the range of 50 to 85%. Further, the inhibition at 10 µM in series [2] was more than 85%. Further, the inhibition at 10 µM in series [4] was more than 85%.

With `COc1ccc(NC(=O)C(C)(C)c2ccc(S(=O)(=O)/C=C/C#N)cc2)cc1` [Example 23, 2-[4-((E)-2-Cyano-ethenesulfonyl)-phenyl]-N-(4-methoxy-phenyl)-isobutyramide], the melting point lay in the range of 123 to 126 °C. Moreover, the inhibition at 10 µM in series [1] lay in the range of 50 to 85%. Also, the inhibition at 10 µM in series [2] lay within 50 to 85%. Also, in series [4], the inhibition at 10 µM is more than 85%.

Compound `CC(C)(C)c1ccc(S(=O)(=O)/C=C/C(N)=O)cc1` [Example 55, (E)-3-(4-tert-Butyl-benzenesulfonyl)-acrylamide] gave a melting point of 151 °C. Moreover, in series [1], the inhibition at 10 µM lay in the range of 10 to 50%. Also, in series [2], the inhibition at 10 µM is 50 to 85%. Also, the inhibition at 10 µM in series [3] is 10 to 50%. The inhibition at 10 µM in series [4] fell in the range of 10 to 50%.

Consider `C/C=C/S(=O)(=O)c1ccc(C(C)(C)C)cc1` [Example 56, 1-tert-Butyl-4-[((E)-prop-1-ene)-1-sulfonyl]-benzene], for which the melting point was found to be 80 °C. Further, in series [1], the inhibition at 10 µM was less than 10%. In addition, the inhibition at 10 µM in series [2] is less than 10%. In addition, the inhibition at 10 µM in series [3] is less than 10%. Further, the inhibition at 10 µM in series [4] is less than 10%.

`CC(C)(C)c1ccc(S(=O)(=O)/C=C/c2ccccc2)cc1` [Example 57, 1-tert-Butyl-4-((E)-2-phenyl-ethenesulfonyl)-benzene] displayed a melting point of 95 °C. Moreover, the inhibition at 10 µM in series [1] is less than 10%. Moreover, the inhibition at 10 µM in series [2] was less than 10%. In addition, the inhibition at 10 µM in series [3] is less than 10%. The inhibition at 10 µM in series [4] was less than 10%.

`C=C(c1ccccc1)S(=O)(=O)c1ccc(C(C)(C)C)cc1` [Example 58, 1-tert-Butyl-4-(1-phenyl-ethenesulfonyl)-benzene] yielded a melting point of 99 °C. Further, the inhibition at 10 µM in series [1] was in the range of 10 to 50%. Further, the inhibition at 10 µM in series [2] is 50 to 85%. The inhibition at 10 µM in series [3] was 10 to 50%. Moreover, the inhibition at 10 µM in series [4] was less than 10%.

`CCOC(=O)/C=C/S(=O)(=O)c1ccc(C(C)(C)C)cc1` [Example 59, (E)-3-(4-tert-Butyl-benzenesulfonyl)-acrylic acid ethyl ester] registered a melting point of 88 to 91 °C. Besides, the inhibition at 10 µM in series [1] is 10 to 50%. Further, the inhibition at 10 µM in series [2] fell in the range of 50 to 85%. In series [3], the inhibition at 10 µM lay in the range of 10 to 50%. In series [4], the inhibition at 10 µM is 50 to 85%.

Regarding `Cc1ccc2oc(C(C)(C)c3cccc(S(=O)(=O)/C=C/C#N)c3)nc2c1` [Example 66, (E)-3-{3-[1-Methyl-1-(5-methyl-benzoxazol-2-yl)-ethyl]-benzenesulfonyl}-acrylonitrile; compound with trifluoro-acetic acid], the inhibition at 10 µM is 50 to 85% in series [1], 50 to 85% in series [2], more than 85% in series [3] and more than 85% in series [4].

In the case of `Cc1ccc(O)c(NC(=O)C(C)(C)c2ccc(S(=O)(=O)/C=C/C#N)cc2)c1` [Example 69, 2-[4-((E)-2-Cyano-ethenesulfonyl)-phenyl]-N-(2-hydroxy-5-methyl-phenyl)-isobutyramide], the inhibition at 10 µM in series [1] lay within 10 to 50%; in series [2], 10 to 50%; in series [3], 50 to 85%; in series [4], 50 to 85%.

`CC(C)(C)c1ccc2cc(S(=O)(=O)/C=C/C#N)ccc2n1` [Example 70, (E)-3-(2-tert-Butyl-quinoline-6-sulfonyl)-acrylonitrile]: the inhibition at 10 µM is 50 to 85% in series [1], 50 to 85% in series [2], more than 85% in series [3] and more than 85% in series [4].

Turning to `CC(C)(C(=O)NCC#Cc1ccccc1)c1ccc(S(=O)(=O)/C=C/C#N)cc1` [Example 71, 2-[4-((E)-2-Cyano-ethenesulfonyl)-phenyl]-N-(3-phenyl-prop-2-ynyl)-isobutyramide], the inhibition at 10 µM was 50 to 85% in series [1], more than 85% in series [2], more than 85% in series [3] and more than 85% in series [4].

`CC(C)(c1ccc(S(=O)(=O)/C=C/C#N)cc1)c1nnc(-c2ccccc2)o1` [Example 72, (E)-3-{4-[1-Methyl-1-(5-phenyl-[1,3,4]oxadiazol-2-yl)-ethyl]-benzenesulfonyl}-acrylonitrile]: the inhibition at 10 µM in series [1] was 50 to 85%; in series [2], 50 to 85%; in series [3], more than 85%; in series [4], more than 85%.

On to `CC(C)(C(=O)Nc1ccccc1O)c1ccc(S(=O)(=O)/C=C/C#N)cc1` [Example 73, 2-[4-((E)-2-Cyano-ethenesulfonyl)-phenyl]-N-(2-hydroxy-phenyl)-isobutyramide], for which the inhibition at 10 µM in series [1] was 10 to 50%; in series [2], 50 to 85%; in series [3], more than 85%; in series [4], 50 to 85%.

With `CC(C)(c1ccc(S(=O)(=O)/C=C/C#N)cc1)c1nc2ccccc2o1` [Example 78, (E)-3-[4-(1-Benzoxazol-2-yl-1-methyl-ethyl)-benzenesulfonyl]-acrylonitrile], the inhibition at 10 µM was 50 to 85% in series [1], 50 to 85% in series [2], more than 85% in series [3] and more than 85% in series [4].

On to `C#CCCNC(=O)C(C)(C)c1ccc(S(=O)(=O)/C=C/C#N)cc1` [Example 80, N-But-3-ynyl-2-[4-((E)-2-cyano-ethenesulfonyl)-phenyl]-isobutyramide], for which the inhibition at 10 µM in series [1] was 10 to 50%; in series [2], 50 to 85%; in series [3] it was more than 85%; in series [4], 50 to 85%.

For the compound `CC(C)(C(=O)NC1CCCCC1)c1ccc(S(=O)(=O)/C=C/C#N)cn1` [Example 86, 2-[5-((E)-2-Cyano-ethenesulfonyl)-pyridin-2-yl]-N-cyclohexyl-isobutyramide], the inhibition at 10 µM in series [1] is 10 to 50%; in series [2] it was 50 to 85%; in series [3] it was more than 85%; in series [4], 10 to 50%.
